These molecules were tested on ER-alpha MCF7 (assay: ER-alpha MCF7 HCS EC50; stated as measured by in vitro cell proliferation assays of Examples 902 and 903). Details: Homo sapiens, MCF7, MCF7 cells; Table 2.
Assay type: cell-based
Summary of the method: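 MCF7 cells seeded 1000-2000 cells/well for 16 h, then treated with nine-point 1:2 DMSO dilution series in quadruplicate at 37 °C, 5% CO2 for 4 days. Viable cells quantified by CellTiter-Glo ATP luminescence; EC50 calculated. Controls: fulvestrant at final 100 nM, DMSO 0.2% v/v.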

Row | EC50 [nM] | SMILES
1 | 1 | C[C@@H]1Cc2c([nH]c3ccccc23)[C@@H](c2c(F)cc(OC3CN(CCC4CC4)C3)cc2F)N1CC(C)(C)F [Example 187, (1R,3R)-1-[4-[1-(2-cyclopropylethyl)azetidin-3-yl]oxy-2,6-difluoro-phenyl]-2-(2-fluoro-2-methyl-propyl)-3-methyl-1,3,4,9-tetrahydropyrido[3,4-b]indole]
2 | 0.128 | C=CCN1CC(Oc2cc(F)c([C@@H]3c4[nH]c5ccccc5c4C[C@@H](C)N3CC(C)(C)F)c(F)c2)C1 [Example 188, (1R,3R)-1-[4-(1-allylazetidin-3-yl)oxy-2,6-difluoro-phenyl]-2-(2-fluoro-2-methyl-propyl)-3-methyl-1,3,4,9-tetrahydropyrido[3,4-b]indole]
3 | 1 | C[C@@H]1Cc2c([nH]c3ccccc23)[C@@H](c2c(F)cc(OC3CN(CC4CCC4)C3)cc2F)N1CC(C)(C)F [Example 189, (1R,3R)-1-[4-[1-(cyclobutylmethyl)azetidin-3-yl]oxy-2,6-difluoro-phenyl]-2-(2-fluoro-2-methyl-propyl)-3-methyl-1,3,4,9-tetrahydropyrido[3,4-b]indole]
4 | 2 | CC(C)CCN1CC(Oc2cc(F)c([C@@H]3c4[nH]c5ccccc5c4C[C@@H](C)N3CC(C)(C)F)c(F)c2)C1 [Example 190, (1R,3R)-1-[2,6-difluoro-4-(1-isopentylazetidin-3-yl)oxy-phenyl]-2-(2-fluoro-2-methyl-propyl)-3-methyl-1,3,4,9-tetrahydropyrido[3,4-b]indole]
5 | 0.267 | CCC(C)CN1CC(Oc2cc(F)c([C@@H]3c4[nH]c5ccccc5c4C[C@@H](C)N3CC(C)(C)F)c(F)c2)C1 (stereo partly drawn) [Example 191, (1R,3R)-1-(2,6-difluoro-4-((1-(2-methylbutyl)azetidin-3-yl)oxy)phenyl)-2-(2-fluoro-2-methylpropyl)-3-methyl-2,3,4,9-tetrahydro-1H-pyrido[3,4-b]indole]
6 | 1 | CCCC(C)N1CC(Oc2cc(F)c([C@@H]3c4[nH]c5ccccc5c4C[C@@H](C)N3CC(C)(C)F)c(F)c2)C1 (stereo partly drawn) [Example 192, (1R,3R)-1-(2,6-difluoro-4-((1-(pentan-2-yl)azetidin-3-yl)oxy)phenyl)-2-(2-fluoro-2-methylpropyl)-3-methyl-2,3,4,9-tetrahydro-1H-pyrido[3,4-b]indole]
7 | 0.484 | C[C@@H]1Cc2c([nH]c3ccccc23)[C@@H](c2c(F)cc(OC3CN(C4CCC4)C3)cc2F)N1CC(C)(C)F [Example 193, (1R,3R)-1-[4-(1-cyclobutylazetidin-3-yl)oxy-2,6-difluoro-phenyl]-2-(2-fluoro-2-methyl-propyl)-3-methyl-1,3,4,9-tetrahydropyrido[3,4-b]indole]
8 | 0.077 | C[C@@H]1Cc2c([nH]c3ccccc23)[C@@H](c2c(F)cc(OC3CN(C4COC4)C3)cc2F)N1CC(C)(C)F [Example 194, (1R,3R)-1-[2,6-difluoro-4-[1-(oxetan-3-yl)azetidin-3-yl]oxy-phenyl]-2-(2-fluoro-2-methyl-propyl)-3-methyl-1,3,4,9-tetrahydropyrido[3,4-b]indole]
9 | 0.165 | C[C@@H]1Cc2c([nH]c3ccccc23)[C@@H](c2c(F)cc(OC3CN(C4CC4)C3)cc2F)N1CC(C)(C)F [Example 195, (1R,3R)-1-[4-(1-cyclopropylazetidin-3-yl)oxy-2,6-difluoro-phenyl]-2-(2-fluoro-2-methyl-propyl)-3-methyl-1,3,4,9-tetrahydropyrido[3,4-b]indole]
10 | 1 | CC(C)CN1[C@H](c2c(F)cc(OCCN3CC(CF)C3)cc2F)c2[nH]c3ccccc3c2C[C@H]1C [Example 197, (1R,3R)-1-[2,6-difluoro-4-[2-[3-(fluoromethyl)azetidin-1-yl]ethoxy]phenyl]-2-isobutyl-3-methyl-1,3,4,9-tetrahydropyrido[3,4-b]indole]
11 | 0.408 | CCCN1CC(Oc2cc(F)c([C@@H]3c4[nH]c5ccccc5c4C[C@@H](C)N3CC(C)C)c(F)c2)C1 [Example 200, (1R,3R)-1-[2,6-difluoro-4-(1-propylazetidin-3-yl)oxy-phenyl]-2-isobutyl-3-methyl-1,3,4,9-tetrahydropyrido[3,4-b]indole]
12 | 0.1 | C[C@@H]1Cc2c([nH]c3ccccc23)[C@@H](c2c(F)cc(OC3CN(CCCF)C3)cc2F)N1S(C)(=O)=O [Example 202, (1R,3R)-1-[2,6-difluoro-4-[1-(3-fluoropropyl)azetidin-3-yl]oxy-phenyl]-3-methyl-2-methylsulfonyl-1,3,4,9-tetrahydropyrido[3,4-b]indole]
13 | 0.066 | C[C@@H]1Cc2c([nH]c3ccccc23)[C@@H](c2c(F)cc(OC3CN(CCC4COC4)C3)cc2F)N1CC(C)(C)F [Example 208, (1R,3R)-1-[2,6-difluoro-4-[1-[2-(oxetan-3-yl)ethyl]azetidin-3-yl]oxy-phenyl]-2-(2-fluoro-2-methyl-propyl)-3-methyl-1,3,4,9-tetrahydropyrido[3,4-b]indole]
14 | 8 | C[C@@H]1Cc2c([nH]c3ccccc23)[C@@H](c2c(F)cc(OC3CN(CC4CCCCC4)C3)cc2F)N1CC(C)(C)F [Example 209, (1R,3R)-1-[4-[1-(cyclohexylmethyl)azetidin-3-yl]oxy-2,6-difluoro-phenyl]-2-(2-fluoro-2-methyl-propyl)-3-methyl-1,3,4,9-tetrahydropyrido[3,4-b]indole]

The next lines start with the molecule.

Row | SMILES | EC50 [nM]
15 | C[C@@H]1Cc2c([nH]c3ccccc23)[C@@H](c2c(F)cc(OCCN3CC(CF)C3)cc2F)N1CC1CC1 [Example 186, (1R,3R)-2-(cyclopropylmethyl)-1-[2,6-difluoro-4-[2-[3-(fluoromethyl)azetidin-1-yl]ethoxy]phenyl]-3-methyl-1,3,4,9-tetrahydropyrido[3,4-b]indole] | 2
16 | C[C@@H]1Cc2c([nH]c3ccccc23)[C@@H](c2c(F)cc(SC3CN(CCCF)C3)cc2F)N1CC(C)(C)F [Example 196, (1R,3R)-1-[2,6-difluoro-4-[1-(3-fluoropropyl)azetidin-3-yl]sulfanyl-phenyl]-2-(2-fluoro-2-methyl-propyl)-3-methyl-1,3,4,9-tetrahydropyrido[3,4-b]indole] | 0.271
17 | C[C@@H]1Cc2c([nH]c3ccccc23)[C@@H](c2c(F)cc(OCCN3CC(CF)C3)cc2F)N1C[C@H](C)c1ccccc1 [Example 198, (1R,3R)-1-(2,6-difluoro-4-(2-(3-(fluoromethyl)azetidin-1-yl)ethoxy)phenyl)-3-methyl-2-((R)-2-phenylpropyl)-2,3,4,9-tetrahydro-1H-pyrido[3,4-b]indole] | 2
18 | C[C@H](CN1[C@H](c2c(F)cc(OCCN3CC(CF)C3)cc2F)c2[nH]c3ccccc3c2C[C@H]1C)c1ccccc1 [Example 199, (1R,3R)-1-(2,6-difluoro-4-(2-(3-(fluoromethyl)azetidin-1-yl)ethoxy)phenyl)-3-methyl-2-((S)-2-phenylpropyl)-2,3,4,9-tetrahydro-1H-pyrido[3,4-b]indole] | 2.32
19 | C[C@@H]1Cc2c([nH]c3ccccc23)[C@@H](c2ccc(OC3CN(CCCF)C3)cc2)N1CC(C)(C)F [Example 201, (1R,3R)-2-(2-fluoro-2-methyl-propyl)-1-[4-[1-(3-fluoropropyl)azetidin-3-yl]oxyphenyl]-3-methyl-1,3,4,9-tetrahydropyrido[3,4-b]indole] | 0.315
20 | C[C@@H]1Cc2c([nH]c3ccccc23)[C@@H](c2c(F)cc(OC[C@H](C)N3CC(C(F)F)C3)cc2F)N1CC(C)(C)F [Example 204, (1R,3R)-1-[4-[(2S)-2-[3-(difluoromethyl)azetidin-1-yl]propoxy]-2,6-difluoro-phenyl]-2-(2-fluoro-2-methyl-propyl)-3-methyl-1,3,4,9-tetrahydropyrido[3,4-b]indole] | 0.371
21 | C[C@@H]1Cc2c([nH]c3ccccc23)[C@@H](c2c(F)cc(OCCN3CC(F)(CF)C3)cc2F)N1CC(C)(C)F [Example 205, (1R,3R)-1-[2,6-difluoro-4-[2-[3-fluoro-3-(fluoromethyl)azetidin-1-yl]ethoxy]phenyl]-2-(2-fluoro-2-methyl-propyl)-3-methyl-1,3,4,9-tetrahydropyrido[3,4-b]indole] | 0.375
22 | C[C@@H]1Cc2c([nH]c3ccccc23)[C@@H](c2c(F)cc(OCCN3CC(CF)C3)cc2F)N1C(=O)CCC#N [Example 206, 4-[(1R,3R)-1-[2,6-difluoro-4-[2-[3-(fluoromethyl)azetidin-1-yl]ethoxy]phenyl]-3-methyl-1,3,4,9-tetrahydropyrido[3,4-b]indol-2-yl]-4-oxo-butanenitrile] | 31
23 | C[C@@H]1Cc2c([nH]c3ccccc23)[C@@H](c2c(F)cc(OCCN3CC(CF)C3)cc2F)N1CC1CCCCC1 [Example 207, (1R,3R)-2-(cyclohexylmethyl)-1-[2,6-difluoro-4-[2-[3-(fluoromethyl)azetidin-1-yl]ethoxy]phenyl]-3-methyl-1,3,4,9-tetrahydropyrido[3,4-b]indole] | 13
24 | C[C@@H]1Cc2c([nH]c3ccccc23)[C@@H](c2ccc(OCCN3CC(CF)C3)cc2Cl)N1CC(C)(C)F [Example 210, (1R,3R)-1-[2-chloro-4-[2-[3-(fluoromethyl)azetidin-1-yl]ethoxy]phenyl]-2-(2-fluoro-2-methyl-propyl)-3-methyl-1,3,4,9-tetrahydropyrido[3,4-b]indole] | 0.1
25 | C[C@@H]1Cc2c([nH]c3ccccc23)[C@@H](c2ccc(OC3CN(CCCF)C3)cc2Cl)N1CC(C)(C)F [Example 211, (1R,3R)-1-[2-chloro-4-[1-(3-fluoropropyl)azetidin-3-yl]oxy-phenyl]-2-(2-fluoro-2-methyl-propyl)-3-methyl-1,3,4,9-tetrahydropyrido[3,4-b]indole] | 0.2
26 | CC(O)CC(=O)N1[C@H](c2c(F)cc(OCCN3CC(CF)C3)cc2F)c2[nH]c3ccccc3c2C[C@H]1C (stereo partly drawn) [Example 212, 1-((1R,3R)-1-(2,6-difluoro-4-(2-(3-(fluoromethyl)azetidin-1-yl)ethoxy)phenyl)-3-methyl-3,4-dihydro-1H-pyrido[3,4-b]indol-2(9H)-yl)-3-hydroxybutan-1-one] | 1

Reference: patent US20250114338A1, “TETRAHYDRO-PYRIDO[3,4-b]INDOLE ESTROGEN RECEPTOR MODULATORS AND USES THEREOF” (Genentech, Inc., priority 2014, published 2025)
